IC50 data for 39 molecules are collected here from BindingDB's records for doi:10.7270/Q2GM865X (D3R/Abbott, 2015).

The structures appear in SMILES notation. pIC50: −log10 of the molar value. Values joined by “and” are separate entries in the source; they are usually repeats but may differ in a detail not shown here. Equal entries are not always repeated.

For this assay, the target named is Coagulation factor X (Homo sapiens, UniProt P00742). In words: D3R245.
Chain of Coagulation factor X (P00742 41-179 limits assumed): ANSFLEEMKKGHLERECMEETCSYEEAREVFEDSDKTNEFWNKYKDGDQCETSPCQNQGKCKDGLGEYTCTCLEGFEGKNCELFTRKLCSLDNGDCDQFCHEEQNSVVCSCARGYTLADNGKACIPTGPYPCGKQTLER
Chain of Coagulation factor X (P00742 235-488 limits assumed): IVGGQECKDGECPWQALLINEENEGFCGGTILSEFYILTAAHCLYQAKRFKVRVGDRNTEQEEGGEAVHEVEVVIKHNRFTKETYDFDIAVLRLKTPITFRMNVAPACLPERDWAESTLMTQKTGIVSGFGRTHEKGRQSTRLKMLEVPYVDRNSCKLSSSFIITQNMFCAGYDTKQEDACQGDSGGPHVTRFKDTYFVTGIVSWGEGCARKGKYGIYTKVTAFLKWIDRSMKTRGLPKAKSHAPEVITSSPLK
The pIC50 is the IC50 on a negative log10 scale, so that one unit is a factor of ten. Low readings indicate a large IC50, high ones a small IC50. In turn, `COC(=O)CN([C@H]1CCN([C@@H](C)C(=O)N2CCOCC2)C1=O)S(=O)(=O)c1ccc2cc(Cl)ccc2c1` [GTC000001A] gave a pIC50 of 7.98.
Molecule `C[C@@H](C(=O)N1CCOCC1)N1CC[C@H](N(CC#N)S(=O)(=O)c2ccc3cc(Cl)ccc3c2)C1=O` [GTC000003A] gave a pIC50 of 7.65.
For `C=CCN([C@H]1CCN([C@@H](C)C(=O)N2CCOCC2)C1=O)S(=O)(=O)c1ccc2cc(Cl)ccc2c1` [GTC000004A], the pIC50 was 7.17.
Molecule `C[C@@H](C(=O)N1CCOCC1)N1CC[C@H](N(CC#N)S(=O)(=O)c2ccc(-c3ccc(Cl)s3)s2)C1=O` [GTC000008A] had a negative-log IC50 (pIC50) of 7.55.
Take `COC(=O)CN([C@H]1CCN([C@@H](C)C(=O)N2CCOCC2)C1=O)S(=O)(=O)c1ccc(-c2ccc(Cl)s2)s1` [GTC000009A]: the negative logarithm of the IC50 (pIC50) was 7.81.
Regarding `CCC(=O)CN([C@H]1CCN([C@@H](C)C(=O)N2CCOCC2)C1=O)S(=O)(=O)c1ccc(-c2ccc(Cl)s2)s1` [GTC000010A], the pIC50 is 7.77.
Under `C[C@@H](C(=O)N1CCOCC1)N1CC[C@H](N(CC#N)S(=O)(=O)/C=C/c2ccc(Cl)cc2)C1=O` [GTC000011A] stands 7.06; under `CCC(=O)CN([C@H]1CCN([C@@H](C)C(=O)N2CCOCC2)C1=O)S(=O)(=O)/C=C/c1ccc(Cl)cc1` [GTC000012A], 7.22; under `COC(=O)CN([C@H]1CCN([C@@H](C)C(=O)N2CCOCC2)C1=O)S(=O)(=O)/C=C/c1ccc(Cl)cc1` [GTC000013A], 7.22.
Turning to `C[C@@H](C(=O)N1CCOCC1)N1CC[C@H](N(Cc2ccoc2)S(=O)(=O)c2ccc3cc(Cl)ccc3c2)C1=O` [GTC000014A], the pIC50 is 7.40.
Regarding `C[C@@H](C(=O)N1CCOCC1)N1CC[C@H](N(Cc2cccnc2)S(=O)(=O)c2ccc3cc(Cl)ccc3c2)C1=O` [GTC000015A], the pIC50 was 7.58.
The figure for `C[C@@H](C(=O)N1CCOCC1)N1CC[C@H](N(CC(=O)O)S(=O)(=O)c2ccc(-c3ccc(Cl)s3)s2)C1=O` [GTC000016A] is 7.62.
The figure for `C[C@@H](C(=O)N1CCOCC1)N1CC[C@H](N(CC(=O)O)S(=O)(=O)/C=C/c2ccc(Cl)cc2)C1=O` [GTC000017A] is 6.88; for `CCOC(=O)CN([C@H]1CCN([C@@H](C)C(=O)N2CCOCC2)C1=O)S(=O)(=O)c1ccc2cc(Cl)ccc2c1` [GTC000018A] it is 6.45; for `C[C@@H](C(=O)N1CCOCC1)N1CC[C@H](N(Cc2ccco2)S(=O)(=O)c2ccc3cc(Cl)ccc3c2)C1=O` [GTC000019A] it is 7.17.
The figure for `C[C@@H](C(=O)N1CCOCC1)N1CC[C@H](N(Cc2nccs2)S(=O)(=O)c2ccc3cc(Cl)ccc3c2)C1=O` [GTC000020A] is 7.42; for `C[C@@H](C(=O)N1CCOCC1)N1CC[C@H](N(CC(=O)C(C)(C)C)S(=O)(=O)c2ccc3cc(Cl)ccc3c2)C1=O` [GTC000021A] it is 7.77.
As to `C[C@@H](C(=O)N1CCOCC1)N1CC[C@H](N(CC(=O)OC(C)(C)C)S(=O)(=O)c2ccc3cc(Cl)ccc3c2)C1=O` [GTC000022A], the pIC50 is 8.19.
Take `CCN([C@H]1CCN([C@@H](C)C(=O)N2CCOCC2)C1=O)S(=O)(=O)c1ccc2cc(Cl)ccc2c1` [GTC000023A]: the pIC50 is 7.27.
In turn, `Cc1nc(CN([C@H]2CCN([C@@H](C)C(=O)N3CCOCC3)C2=O)S(=O)(=O)c2ccc3cc(Cl)ccc3c2)cs1` [GTC000024A] had a pIC50 of 7.76.
The figure for `CCC(=O)CN([C@H]1CCN([C@@H](C)C(=O)N2CCOCC2)C1=O)S(=O)(=O)c1cc2ccc(Cl)cc2s1` [GTC000025A] is 7.57.
The molecule `C[C@@H](C(=O)N1CCOCC1)N1CC[C@H](N(CC(N)=O)S(=O)(=O)c2cc3ccc(Cl)cc3s2)C1=O` [GTC000026A] showed a pIC50 of 7.30.
The figure for `CCC(=O)CN([C@H]1CCN([C@@H](C)C(=O)N2CCOCC2)C1=O)S(=O)(=O)c1cc2cc(Cl)ccc2s1` [GTC000027A] is 6.56.
Turning to `C[C@@H](C(=O)N1CCOCC1)N1CC[C@H](N(Cc2ccccn2)S(=O)(=O)c2ccc3cc(Cl)ccc3c2)C1=O` [GTC000028A], the negative-log IC50 (pIC50) was 8.10 and 7.92.
In turn, `C[C@@H](C(=O)N1CCOCC1)N1CC[C@H](N(Cc2ccncc2)S(=O)(=O)c2ccc3cc(Cl)ccc3c2)C1=O` [GTC000029A] showed a pIC50 of 7.96.
Molecule `C[C@@H](C(=O)N1CCOCC1)N1CC[C@H](N(CC(N)=O)S(=O)(=O)/C=C/c2ccc(Cl)cc2)C1=O` [GTC000030A] gave a negative logarithm of the IC50 (pIC50) of 7.27. This pIC50 lies 0.69 log units lower than the previous one.
The figure for `C[C@@H](C(=O)N1CCOCC1)N1CC[C@H](N(CC(N)=O)S(=O)(=O)c2cc3cc(Cl)ccc3s2)C1=O` [GTC000031A] is 6.66.
Molecule `C[C@@H](C(=O)N1CCOCC1)N1CC[C@H](N(CC(N)=O)S(=O)(=O)c2ccc(-c3ccc(Cl)s3)s2)C1=O` [GTC000032A] showed a pIC50 of 7.85.
For `C[C@@H](C(=O)N1CCOCC1)N1CC[C@H](N(c2ccccc2)S(=O)(=O)c2ccc3cc(Cl)ccc3c2)C1=O` [GTC000033A], the pIC50 is 6.58. Compared with the last molecule, the pIC50 is 1.27 log units lower.
Under `C[C@@H](C(=O)N1CCOCC1)N1CC[C@H](N(c2ccc(F)cc2)S(=O)(=O)c2ccc3cc(Cl)ccc3c2)C1=O` [GTC000034A] stands 6.77.
The figure for `C[C@@H](C(=O)N1CCOCC1)N1CC[C@H](N(c2ccsc2)S(=O)(=O)c2ccc3cc(Cl)ccc3c2)C1=O` [GTC000036A] is 6.82; for `C[C@@H](C(=O)N1CCOCC1)N1CC[C@H](N(c2cccnc2)S(=O)(=O)c2ccc3cc(Cl)ccc3c2)C1=O` [GTC000037A] it is 7.11.
In the case of `C[C@@H]1CN(C(=O)[C@H](C)N2CC[C@H](N(CC(N)=O)S(=O)(=O)c3ccc4cc(Cl)ccc4c3)C2=O)C[C@H](C)O1` [GTC000038A], the pIC50 is 7.58.
`C[C@@H](C(=O)N1C[C@@H]2C[C@H]1CO2)N1CC[C@H](N(CC(N)=O)S(=O)(=O)c2ccc3cc(Cl)ccc3c2)C1=O` [GTC000039A] showed a pIC50 of 7.01.
`C[C@@H](C(=O)N1CCOCC1)N1CC[C@H](N(CCN2CCOCC2)S(=O)(=O)c2ccc3cc(Cl)ccc3c2)C1=O` [GTC000040A] had a pIC50 of 8.08.
Under `CC(=O)NCCN([C@H]1CCN([C@@H](C)C(=O)N2CCOCC2)C1=O)S(=O)(=O)c1ccc2cc(Cl)ccc2c1` [GTC000041A] stands 7.25.
The molecule `C[C@@H](C(=O)N1CCOCC1)N1CC[C@H](N(CCN(C)C)S(=O)(=O)c2ccc3cc(Cl)ccc3c2)C1=O` [GTC000042A] gave a pIC50 of 7.62.
`C[C@@H](C(=O)N1CCOCC1)N1CC[C@H](N(CCN2CCCC2)S(=O)(=O)c2ccc3cc(Cl)ccc3c2)C1=O` [GTC000043A]: the pIC50 is 7.92.
Turning to `C[C@@H](C(=O)N1CCOCC1)N1CC[C@H](N(C)S(=O)(=O)/C=C/c2ccc(Cl)s2)C1=O` [GTC000044A], the pIC50 was 6.39.
